Laboratory results from PMC7997032, “Organic synthesis and anti-influenza A virus activity of cyclobakuchiols A, B, C, and D” (PLoS ONE, 2021).
“And” between values parts separate entries of the source, which are not always exact repeats. Equal values may be shown once.

Tested on: MDCK cells
Test: MTT assay (cytotoxicity against MDCK cells)
Type: cell-based, canine
Details: MDCK cells; for MTT, DMSO as 100 (DMSOを 100として), ave / MTT 72h AVE (DMSO = 100): 72h; for MTT, DMSO as 100 (DMSOを 100として), ave: mean of 5 wells (200409 #1 and #3); for MTT 72h AVE (DMSO = 100): summary AVE; for MTT 24h, AVE (DMSO as 100) / MTT 24h, 570-650nm, DMSO as 100, ave: mean of 5 wells from 3 experiments; for MTT 24h, AVE (DMSO as 100): relative to DMSO = 100; for MTT 24h, 570-650nm, DMSO as 100, single replicate: individual wells (200331; 200403 #2 1,2; 200403 #3 1,2); for 570-650nm (MTT absorbance, single wells) / 570-650nm ave (mean MTT absorbance of 5 wells) / MTT absorbance with DMSO as 100 (DMSOを 100として), single wells: MTT 72h; for 570-650nm (MTT absorbance, single wells): experiments #1-#3, duplicate wells; for MTT absorbance with DMSO as 100 (DMSOを 100として), single wells: relative to mean of DMSO
Procedure: 1–5 (0.8–100 μM) were prepared in DMSO (100 μM, 1%; 50 μM, 0.5%; 25 μM, 0.25%; 12.5 μM, 0.125%; 6.3 μM, 0.063%; 3.1 μM, 0.031%; 1.6 μM, 0.016%; 0.8 μM, 0.008%) and mixed with infection medium (DMEM supplemented with 1% bovine serum albumin (BSA; Wako), P/S and 4 mM L-glutamine). The resulting mixture was added to the cells and incubated for 24 or 72 h at 37°C in the presence of 5% CO2. After incubation, cell viability was determined using an MTT cell count kit (Nacalai Tesque) according to the manufacturer’s instructions, as previously described.

[1] = 3.13uM (3.125uM in summary block)

Row | SMILES | MTT, DMSO as 100 (DMSOを 100として), ave (0.78uM) | MTT, DMSO as 100 (DMSOを 100として), ave (1.56uM) | MTT, DMSO as 100 (DMSOを 100として), ave (3.125uM) | MTT 72h AVE (DMSO = 100) (6.25 (uM)) | MTT 72h AVE (DMSO = 100) (12.5 (uM)) | MTT 72h AVE (DMSO = 100) (25 (uM)) | MTT 72h AVE (DMSO = 100) (50 (uM)) | MTT 72h AVE (DMSO = 100) (100 (uM)) | MTT 24h, AVE (DMSO as 100) (0.78 uM) | MTT 24h, AVE (DMSO as 100) (1.56 uM) | MTT 24h, 570-650nm, DMSO as 100, single replicate (3.125uM) | MTT 24h, 570-650nm, DMSO as 100, ave (3.125uM) | MTT 24h, 570-650nm, DMSO as 100, single replicate (6.25uM) | MTT 24h, 570-650nm, DMSO as 100, ave (6.25uM) | MTT 24h, 570-650nm, DMSO as 100, single replicate (12.5uM) | MTT 24h, 570-650nm, DMSO as 100, ave (12.5uM) | MTT 24h, 570-650nm, DMSO as 100, single replicate (25uM) | MTT 24h, 570-650nm, DMSO as 100, ave (25uM) | MTT 24h, 570-650nm, DMSO as 100, single replicate (50uM) | MTT 24h, 570-650nm, DMSO as 100, ave (50uM) | other results
1 | C=C[C@]1(C)CC[C@@H](C(=C)C)[C@H](c2ccc(O)cc2)C1 [Cyclo. B] | 97.4368 | 107.487 | 135.205 | 152.012 | 128.856 | 133.275 | 92.332 | 27.1545 | 105.371 | 93.7053 | 97.7259 and 87.8578 and 108.85 and 106.215 and 84.4914 | 97.028 | 100.056 and 92.1514 and 106.191 and 111.594 and 90.247 | 100.048 | 100.027 and 92.2079 and 111.97 and 107.481 and 100.019 | 102.341 | 93.3176 and 99.811 and 119.964 and 115.104 and 108.65 | 107.369 | 101.366 and 118.852 and 85.3652 and 130.523 and 116.385 | 110.498 | MTT 24h, 570-650nm, DMSO as 100, single replicate (100uM): 120.469 and 116.882 and 135.616 and 105.182 and 78.3439; MTT 24h, 570-650nm, DMSO as 100, ave (100uM): 111.299; 570-650nm (MTT absorbance, single wells) (0.78uM): 1.0803 and 0.7822 and 0.6986 and 0.7618 and 0.6844 and 0.8059; 570-650nm (MTT absorbance, single wells) (1.56uM): 0.9938 and 0.9382 and 0.7725 and 0.5035 and 0.9217 and 0.7676; 570-650nm (MTT absorbance, single wells) [1]: 0.8489 and 0.8759 and 0.9309 and 0.9208 and 0.9982 and 0.8279; 570-650nm ave (mean MTT absorbance of 5 wells) (6.25uM): 1.04; 570-650nm (MTT absorbance, single wells) (6.25uM): 0.8643 and 1.0571 and 1.004 and 1.1478 and 1.1256 and 0.8768; MTT absorbance with DMSO as 100 (DMSOを 100として), single wells (6.25uM): 154.547 and 146.784 and 167.807 and 164.561 and 126.36; 570-650nm ave (mean MTT absorbance of 5 wells) (12.5uM): 1.026; 570-650nm (MTT absorbance, single wells) (12.5uM): 1.0196 and 0.9592 and 1.0242 and 0.9589 and 1.0117 and 1.1742; MTT absorbance with DMSO as 100 (DMSOを 100として), single wells (12.5uM): 120.471 and 128.675 and 147.52 and 127.104 and 120.509; 570-650nm ave (mean MTT absorbance of 5 wells) (25uM): 1.002; 570-650nm ave (mean MTT absorbance of 5 wells) (50uM): 0.8426; 570-650nm ave (mean MTT absorbance of 5 wells) (100uM): 0.2557; 570-650nm (MTT absorbance, single wells) (100uM): 0.2419 and 0.2859 and 0.234 and 0.2603 and 0.2251 and 0.273; MTT absorbance with DMSO as 100 (DMSOを 100として), single wells (100uM): 27.6474 and 24.854 and 28.9963 and 23.9087 and 30.3664
2 | C=C[C@]1(C)CC[C@H](C(C)(C)O)[C@@H](c2ccc(O)cc2)C1 [Cyclo. C] | 97.7369 | 116.194 | 124.106 | 130.219 | 123.122 | 141.455 | 116.495 | 142.83 | 97.4262 | 89.4582 | 98.8583 and 80.6936 and 68.9227 and 107.532 and 92.5261 | 89.7067 | 105.442 and 92.9243 and 77.243 and 111.801 and 97.5139 | 96.9849 | 112.407 and 88.505 and 78.5484 and 110.111 and 102.316 | 98.3774 | 89.9468 and 93.8621 and 86.7762 and 109.435 and 109.619 | 97.9279 | 107.424 and 104.395 and 78.3927 and 112.047 and 113.734 | 103.198 | MTT 24h, 570-650nm, DMSO as 100, single replicate (100uM): 113.671 and 119.568 and 104.628 and 127.474 and 126.723; MTT 24h, 570-650nm, DMSO as 100, ave (100uM): 118.413; 570-650nm (MTT absorbance, single wells) (0.78uM): 0.9938 and 0.7395 and 0.7311 and 0.6372 and 0.8862 and 0.7504; 570-650nm (MTT absorbance, single wells) (1.56uM): 0.9464 and 0.9776 and 0.7533 and 0.5791 and 0.9528 and 0.9569; 570-650nm (MTT absorbance, single wells) [1]: 0.9669 and 0.8575 and 0.7479 and 0.8256 and 0.9 and 0.8489; 570-650nm ave (mean MTT absorbance of 5 wells) (6.25uM): 0.8907; 570-650nm (MTT absorbance, single wells) (6.25uM): 0.8518 and 0.8346 and 0.7398 and 1.0173 and 1.01 and 0.9632; MTT absorbance with DMSO as 100 (DMSOを 100として), single wells (6.25uM): 122.018 and 108.158 and 148.728 and 147.661 and 124.532; 570-650nm ave (mean MTT absorbance of 5 wells) (12.5uM): 0.98; 570-650nm (MTT absorbance, single wells) (12.5uM): 0.9561 and 0.8827 and 0.8467 and 1.0013 and 1.1241 and 1.0452; MTT absorbance with DMSO as 100 (DMSOを 100として), single wells (12.5uM): 125.798 and 106.375 and 131.313 and 141.226 and 110.898; 570-650nm ave (mean MTT absorbance of 5 wells) (25uM): 1.064; 570-650nm (MTT absorbance, single wells) (25uM): 0.9926 and 0.9592 and 0.9724 and 1.0619 and 1.1012 and 1.2247; MTT absorbance with DMSO as 100 (DMSOを 100として), single wells (25uM): 141.191 and 129.291 and 162.837 and 146.417 and 127.536; 570-650nm ave (mean MTT absorbance of 5 wells) (50uM): 1.063; 570-650nm (MTT absorbance, single wells) (50uM): 1.1675 and 1.0763 and 1.0296 and 0.8397 and 1.1252 and 1.245; MTT absorbance with DMSO as 100 (DMSOを 100として), single wells (50uM): 92.0098 and 112.818 and 136.42 and 123.293 and 117.935; 570-650nm ave (mean MTT absorbance of 5 wells) (100uM): 1.345; 570-650nm (MTT absorbance, single wells) (100uM): 1.4551 and 1.3837 and 1.3254 and 1.1438 and 1.3954 and 1.4754; MTT absorbance with DMSO as 100 (DMSOを 100として), single wells (100uM): 121.487 and 140.775 and 156.707 and 148.21 and 146.968
